Test systems include SF-539 CNS; U251 CNS; A498 renal; NCI-H226 lung; OVCAR-5 ovarian; SK-OV-3 ovarian; PC-3 prostate; IGROV1 ovarian; OVCAR-8 ovarian; SN12C renal.
What all share (assay): DTP human tumour cell line panel, 48 h

Several values for one entry are separate records, joined by “and”; a condition that tells them apart may be missing. Equal values may be shown once.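 Exposure lasted 48 hours, with cells grown in 96-well plates and compounds tested at five concentrations. GI50 = concentration required for 50% inhibition of growth. TGI denotes the concentration required for complete inhibition of growth.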

Turning to `CC(C)CNC(=O)O`, the TGI in the assay on SF-539 CNS, in the assay with U251 CNS, in the assay with A498 renal, in the assay on NCI-H226 lung, in the assay with OVCAR-5 ovarian and in the assay on SK-OV-3 ovarian was more than 100000 nM each time. In addition, the TGI with PC-3 prostate, with IGROV1 ovarian, in the assay on OVCAR-8 ovarian and with SN12C renal was more than 100000 nM throughout.
Regarding `N#CC(=NCCO)C1=C(O)c2ccccc2C1=O`, the TGI with SF-539 CNS, in the assay with U251 CNS, with A498 renal, with NCI-H226 lung, in the assay on OVCAR-5 ovarian and with SK-OV-3 ovarian was more than 100000 nM each time. The TGI in the assay with PC-3 prostate, in the assay on IGROV1 ovarian, in the assay with OVCAR-8 ovarian and in the assay on SN12C renal was more than 100000 nM in each case.
Turning to `Oc1cn(-c2ccc(Cl)cc2)nc1-c1n[nH]c(=S)n1C1CCCCC1`, the GI50 was 312 nM in the assay with SF-539 CNS; 467 nM in the assay with U251 CNS; 365 nM in the assay with A498 renal; 59800 nM in the assay on NCI-H226 lung; 3050 nM with OVCAR-5 ovarian; 451 nM in the assay with SK-OV-3 ovarian. Further, the GI50 in the assay on PC-3 prostate is 11400 nM; in the assay on IGROV1 ovarian, 24200 nM; in the assay on OVCAR-8 ovarian, 460 nM; in the assay with SN12C renal, 2430 nM. Further, the TGI is 1110 nM with SF-539 CNS; more than 100000 nM with U251 CNS; 9440 nM in the assay with A498 renal; more than 100000 nM in the assay on NCI-H226 lung; more than 100000 nM in the assay on OVCAR-5 ovarian; more than 44500 nM in the assay with SK-OV-3 ovarian. The TGI is more than 66900 nM in the assay on PC-3 prostate, more than 100000 nM with IGROV1 ovarian, 16800 nM with OVCAR-8 ovarian and more than 100000 nM with SN12C renal.
For `COc1cc2c(c(OC)n1)[C@]1(O)[C@H](O)[C@H](CN(C)C)[C@@H](c3ccccc3)[C@]1(c1ccc(C#N)cc1)O2`, the GI50 with SF-539 CNS was 14.2 nM and < 11.6 nM; in the assay with U251 CNS, 20 nM and < 11.1 nM; in the assay on A498 renal, 19.2 nM and 20.1 nM; in the assay on NCI-H226 lung it was 25.4 nM and < 13.1 nM; in the assay on OVCAR-5 ovarian, 20.8 nM and 17.4 nM; in the assay with SK-OV-3 ovarian, 48.1 nM and 28.4 nM. The GI50 with PC-3 prostate was 22.3 nM and < 11.6 nM; in the assay on IGROV1 ovarian it was 13.4 nM and < 10 nM; in the assay with OVCAR-8 ovarian, 29.2 nM and 31.6 nM; in the assay on SN12C renal, 15.6 nM and < 13.2 nM. Also, the TGI in the assay on SF-539 CNS was 96.3 nM and 122 nM; with U251 CNS it was 2390 nM and 7950 nM; in the assay on A498 renal, 51.8 nM and 77.3 nM; with NCI-H226 lung, 4340 nM and 1280 nM; in the assay on OVCAR-5 ovarian, 866 nM and 1430 nM; with SK-OV-3 ovarian it was 7950 nM and 2100 nM. The TGI is 10700 nM and 2390 nM with PC-3 prostate; 2440 nM and 1930 nM in the assay on IGROV1 ovarian; 10100 nM and 11500 nM in the assay on OVCAR-8 ovarian; 1940 nM and 1610 nM in the assay with SN12C renal.

The record behind these values is PubChem BioAssay (NCI).
